Source: US10392443B2, “Diagnostic and therapeutic tool for cancer” (Agency for Science, Technology and Research, priority 2014, dated 2019)

Test system: MHCC-LM3 cells
Test: Fibronectin attachment with recombinant Agrin coat, Western blot
Type: cell-based, human
Conditions: Agrin depleted MHCC-LM3 cells; fibronectin supplemented with 20 μg/ml recombinant Agrin as ECM coat; 2 h post plating
Description: 72 h post transfections, cell lysates were analysed for indicated proteins; (b and c) show Western blot analysis of control or Agrin depleted MHCC-LM3 cells, which were serum starved overnight, trypsinized and plated on fibronectin or fibronectin supplemented with 20 μg/ml recombinant Agrin coated surface. […] Representative images under 20× magnification are shown and results quantitated using Image J software (P value=0.005). Thus, FIG. 6 validates the role of Agrin as an ECM sensor regulating focal adhesion, cell spreading and invasion to affect EMT program in HCC cell lines.
Briefly, culture plates were coated with 10 μg/ml fibronectin for 1 h at 37° C. Either control or Agrin knockdown cells (2*10^3 cells/ml) were trypsinized and plated on coated dishes. Adhered cells were analysed either by live cell imaging for morphological changes at indicated time-points or lysates were collected and subjected to Western blot analysis.

recombinant Agrin: Pure recombinant Agrin protein obtained from MyBiosource
activation of focal adhesion kinase and Arp2/3: substantially increased
